Test results: PubChem BioAssay AID330 (DTP/NCI, 2004)
Several values for one entry are separate records, joined by “and”; a condition that tells them apart may be missing. Equal entries are not always repeated. Inconclusive results and toxic doses are left out. Square brackets hold non-standard residues; d marks the D form. Peptide text beside a SMILES is read from it. * marks the point of attachment. ξ: configuration not given here. Cbz = O=C(OCc1ccccc1)*; ξM = CSCCC(N)C(=O)O

Test system: P388 leukemia ip, CD2F1 mice, survival T/C
Assay: NCI In Vivo Anticancer Drug Screen. Data for tumor model P388 Leukemia (intraperitoneal) in CD2F1 (CDF1) mice
Conditions: endpoint: median survival time, higher = longer survival
Procedure, shortened: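 Mice carrying the transplanted tumor received test compound or vehicle. Survival was recorded in each group, and the value is the treated-group measurement divided by that of the vehicle-treated control group.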

[1] = dose: 60.0 mg/kg/injection, schedule: Q01DX005 (ip), vehicle: saline with Tween-80
[2] = dose: 120.0 mg/kg/injection, schedule: Q01DX005 (ip), vehicle: saline with Tween-80
[3] = dose: 240.0 mg/kg/injection, schedule: Q01DX005 (ip), vehicle: saline with Tween-80
[4] = dose: 25.0 mg/kg/injection, schedule: Q01DX005 (ip), vehicle: saline with Tween-80
[5] = dose: 50.0 mg/kg/injection, schedule: Q01DX005 (ip), vehicle: saline with Tween-80
[6] = dose: 100.0 mg/kg/injection, schedule: Q01DX005 (ip), vehicle: saline with Tween-80
[7] = dose: 25.0 mg/kg/injection, schedule: Q01DX005 (ip), vehicle: Klucel (hydroxypropylcellulose) (HPC)
[8] = dose: 50.0 mg/kg/injection, schedule: Q01DX005 (ip), vehicle: Klucel (hydroxypropylcellulose) (HPC)
[9] = dose: 100.0 mg/kg/injection, schedule: Q01DX005 (ip), vehicle: Klucel (hydroxypropylcellulose) (HPC)
[10] = dose: 12.5 mg/kg/injection, schedule: Q01DX005 (ip), vehicle: saline with Tween-80
[11] = dose: 60.0 mg/kg/injection, schedule: Q01DX005 (ip), vehicle: saline
[12] = dose: 120.0 mg/kg/injection, schedule: Q01DX005 (ip), vehicle: saline
[13] = dose: 100.0 mg/kg/injection, schedule: Q04DX003 (ip), vehicle: saline with Tween-80
[14] = dose: 200.0 mg/kg/injection, schedule: Q01DX005 (ip), vehicle: Klucel (hydroxypropylcellulose) (HPC)
[15] = dose: 200.0 mg/kg/injection, schedule: Q01DX005 (ip), vehicle: saline with Tween-80
[16] = dose: 50.0 mg/kg/injection, schedule: Q01DX009 (ip), vehicle: Klucel (hydroxypropylcellulose) (HPC)
[17] = dose: 100.0 mg/kg/injection, schedule: Q01DX009 (ip), vehicle: Klucel (hydroxypropylcellulose) (HPC)
[18] = dose: 200.0 mg/kg/injection, schedule: Q01DX009 (ip), vehicle: Klucel (hydroxypropylcellulose) (HPC)

In the case of CCCCNc1ccc(-c2c(N)nc(N)nc2CC)cc1[N+](=O)[O-], the T/C [1] is reported as 111 % of control and 118 % of control, the T/C [2] is reported as 121 % of control and the T/C [3] is reported as 206 % of control. The T/C (dose: 480.0 mg/kg/injection, schedule: Q01DX005 (ip), vehicle: saline with Tween-80) was 158 % of control.

With Cc1[nH]c(N)nc(=S)c1CCCOc1ccc([N+](=O)[O-])cc1 the T/C [1] was 99 % of control, the T/C [2] was 93 % of control and the T/C [3] was 97 % of control.

In the case of O=C1NN2CCCN=C2c2ncccc21, the T/C [1] is reported as 104 % of control, the T/C [2] is reported as 103 % of control and the T/C [3] is reported as 108 % of control.

For O=c1[nH]c(=O)c2cc3[nH]ncc3cc2[nH]1, the T/C [4] was 93 % of control, the T/C [5] was 93 % of control and the T/C [6] was 92 % of control.

For COc1cc2c(c3c1c(=O)c1cccc(F)c1n3C)C=CC(C)(C)O2, the T/C [7] was 113 % of control, the T/C [8] was 109 % of control and 110 % of control and the T/C [9] was 120 % of control.

With C/C(=C1\C(=O)Oc2c(ccc3ccccc23)C1=O)c1ccc2ccccc2c1O the T/C [10] was 99 % of control, the T/C [4] was 99 % of control and the T/C [5] was 86 % of control and 97 % of control.

For CCCc1c(-c2ccccc2)nc(N)nc1-c1nc(N)nc(-c2ccccc2)c1CCC, the T/C [11] was 100 % of control and the T/C [12] was 95 % of control.

With CC1CC(C)(C)N=C(C(C)C)O1 (stereo not given) the T/C (dose: 25.0 mg/kg/injection, schedule: Q04DX003 (ip), vehicle: saline with Tween-80) was 109 % of control, the T/C (dose: 50.0 mg/kg/injection, schedule: Q04DX003 (ip), vehicle: saline with Tween-80) was 100 % of control and the T/C [13] was 100 % of control.

In the case of CC(=O)c1c(-c2ccc(Cl)cc2)c(-c2ccc(Cl)cc2)nn(CCN)c1=O, the T/C [10] is reported as 100 % of control, the T/C [4] is reported as 98 % of control and the T/C [5] is reported as 98 % of control and 95 % of control.

In the case of COc1ccc(N2C(=O)c3ccc4c5ccc6c7c(ccc(c8ccc(c3c48)C2=O)c75)C(=O)N(C)C6=O)cc1, the T/C [8] is reported as 97 % of control, the T/C [9] is reported as 98 % of control and the T/C [14] is reported as 105 % of control.

In the case of CCC(O)C(C)C=O (stereo not given), the T/C [11] is reported as 107 % of control, the T/C [12] is reported as 100 % of control and the T/C (dose: 240.0 mg/kg/injection, schedule: Q01DX005 (ip), vehicle: saline) is reported as 104 % of control.

With CCC(C)C(NC(=O)OCc1ccccc1)C(=O)NC(CC(C)C)C(=O)O (stereo not drawn) (Cbz-Ile-Leu-OH; configuration not given here) the T/C [8] was 114 % of control, the T/C [9] was 99 % of control and the T/C [14] was 99 % of control.

With CC1=C2CCCCCC2(O)OC1=O (stereo not given) the T/C (dose: 6.25 mg/kg/injection, schedule: Q01DX001 (ip), vehicle: saline) was 109 % of control, the T/C (dose: 12.5 mg/kg/injection, schedule: Q01DX001 (ip), vehicle: saline) was 111 % of control and the T/C (dose: 25.0 mg/kg/injection, schedule: Q01DX001 (ip), vehicle: saline) was 104 % of control and 117 % of control. For the same compound, the T/C (dose: 50.0 mg/kg/injection, schedule: Q01DX001 (ip), vehicle: saline) was 120 % of control and the T/C (dose: 100.0 mg/kg/injection, schedule: Q01DX001 (ip), vehicle: saline) was 100 % of control.

In the case of C[C@@H](O)[C@H](NSc1ccccc1[N+](=O)[O-])C(=O)NCCc1nc(-c2nc(C(=O)NCCCBr)cs2)cs1, the T/C (dose: 6.25 mg/kg/injection, schedule: Q01DX005 (ip), vehicle: saline with Tween-80) is reported as 93 % of control, the T/C [10] is reported as 95 % of control and the T/C [4] is reported as 90 % of control. For the same compound, the T/C [6] was 97 % of control and the T/C [15] was 86 % of control.

In the case of O=C(O)C[n+]1cccc2ccccc21, the T/C (dose: 50.0 mg/kg/injection, schedule: Q01DX005 (ip), vehicle: saline) is reported as 103 % of control, the T/C (dose: 100.0 mg/kg/injection, schedule: Q01DX005 (ip), vehicle: saline) is reported as 93 % of control and the T/C (dose: 200.0 mg/kg/injection, schedule: Q01DX005 (ip), vehicle: saline) is reported as 87 % of control.

In the case of O=C(NC(C(=O)NC(C(=O)O)C1CC(Cl)=NO1)C1CC(Cl)=NO1)OCC1c2ccccc2-c2ccccc21 (stereo not given), the T/C (dose: 5.0 mg/kg/injection, schedule: Q04DX003 (ip), vehicle: other) is reported as 120 % of control, the T/C (dose: 12.5 mg/kg/injection, schedule: Q04DX003 (ip), vehicle: other) is reported as 150 % of control and the T/C (dose: 25.0 mg/kg/injection, schedule: Q04DX003 (ip), vehicle: other) is reported as 160 % of control. For the same compound, the T/C (dose: 40.0 mg/kg/injection, schedule: Q04DX003 (ip), vehicle: other) was 172 % of control, the T/C (dose: 50.0 mg/kg/injection, schedule: Q04DX003 (ip), vehicle: other) was 222 % of control and the T/C (dose: 80.0 mg/kg/injection, schedule: Q04DX003 (ip), vehicle: other) was 201 % of control. The T/C (dose: 160.0 mg/kg/injection, schedule: Q04DX003 (ip), vehicle: other) was 158 % of control.

In the case of COC(=O)c1ccc(CNC(=O)c2ccccc2C(=O)NCC2(CBr)OCCO2)cc1, the T/C [16] is reported as 113 % of control, the T/C [17] is reported as 99 % of control and the T/C [18] is reported as 96 % of control.

For C[Si](C)(C)CSCCO, the T/C [5] was 106 % of control, the T/C [6] was 104 % of control and the T/C [15] was 100 % of control.

For CCOC(=O)c1cn(C)c2c1C(=O)C(C(=O)OCC)CCN2C(=O)OCC (stereo not given), the T/C (dose: 50.0 mg/kg/injection, schedule: Q01DX009 (ip), vehicle: saline with Tween-80) was 99 % of control, the T/C (dose: 100.0 mg/kg/injection, schedule: Q01DX009 (ip), vehicle: saline with Tween-80) was 105 % of control and the T/C (dose: 200.0 mg/kg/injection, schedule: Q01DX009 (ip), vehicle: saline with Tween-80) was 107 % of control.

For Nc1ccccc1Nc1c([N+](=O)[O-])cc(C(F)(F)F)cc1[N+](=O)[O-], the T/C (dose: 60.0 mg/kg/injection, schedule: Q01DX005 (ip), vehicle: Klucel (hydroxypropylcellulose) (HPC)) was 103 % of control, the T/C (dose: 120.0 mg/kg/injection, schedule: Q01DX005 (ip), vehicle: Klucel (hydroxypropylcellulose) (HPC)) was 105 % of control and the T/C (dose: 240.0 mg/kg/injection, schedule: Q01DX005 (ip), vehicle: Klucel (hydroxypropylcellulose) (HPC)) was 90 % of control.

With COc1ccccc1/C=C/C(=O)c1ccccc(=O)c1O the T/C [7] was 101 % of control, the T/C [8] was 104 % of control and the T/C [9] was 100 % of control. The T/C [14] was 109 % of control.

For CC(CN=C(CC(=O)c1ccc(Br)cc1)c1ccccc1)N=C(CC(=O)c1ccc(Br)cc1)c1ccccc1 (stereo not given), the T/C [13] was 90 % of control, the T/C (dose: 200.0 mg/kg/injection, schedule: Q04DX003 (ip), vehicle: saline with Tween-80) was 87 % of control and the T/C (dose: 400.0 mg/kg/injection, schedule: Q04DX003 (ip), vehicle: saline with Tween-80) was 87 % of control.

With C/C(=N\NC(=S)N1CCC(C)CC1)c1ncccn1 the T/C (dose: 12.5 mg/kg/injection, schedule: Q04DX003 (ip), vehicle: Klucel (hydroxypropylcellulose) (HPC)) was 117 % of control and the T/C (dose: 25.0 mg/kg/injection, schedule: Q04DX003 (ip), vehicle: Klucel (hydroxypropylcellulose) (HPC)) was 91 % of control.

In the case of CC(C)(C)N=C(CCN1CCN(CCC(=NC(C)(C)C)Nc2c(Cl)cccc2Cl)CC1)Nc1c(Cl)cccc1Cl, the T/C [16] is reported as 96 % of control, the T/C [17] is reported as 95 % of control and the T/C [18] is reported as 92 % of control.

For CC(NNC(=S)N1CC2CCC(CC2)C1)c1nccc2ccccc12 (stereo not given), the T/C [10] was 110 % of control, the T/C [4] was 103 % of control and the T/C [5] was 119 % of control.

For O=C(O)c1cc(N2C(=O)c3ccc4c5ccc6c7c(ccc(c8ccc(c3c48)C2=O)c75)C(=O)N(c2ccc(O)c(C(=O)O)c2)C6=O)ccc1O, the T/C (dose: 50.0 mg/kg/injection, schedule: Q01DX009 (ip), vehicle: saline) was 98 % of control, the T/C (dose: 100.0 mg/kg/injection, schedule: Q01DX009 (ip), vehicle: saline) was 91 % of control and the T/C (dose: 200.0 mg/kg/injection, schedule: Q01DX009 (ip), vehicle: saline) was 90 % of control.

In the case of C[N+]1(Cc2ccccc2)CCCC(O)C1 (stereo not given), the T/C (dose: 7.5 mg/kg/injection, schedule: Q01DX005 (ip), vehicle: saline with Tween-80) is reported as 101 % of control, the T/C (dose: 15.0 mg/kg/injection, schedule: Q01DX005 (ip), vehicle: saline with Tween-80) is reported as 93 % of control and the T/C (dose: 30.0 mg/kg/injection, schedule: Q01DX005 (ip), vehicle: saline with Tween-80) is reported as 99 % of control.

With COc1cc(/C=C2\N=C(C)OC2=O)ccc1O the T/C [8] was 106 % of control, the T/C [9] was 101 % of control and the T/C [14] was 104 % of control.

In the case of CSCCC(NC(=O)CNC(=O)CNC(=O)OCc1ccccc1)C(=O)O (stereo not drawn) (Cbz-Gly-Gly-[ξM]-OH), the T/C [8] is reported as 95 % of control, the T/C [9] is reported as 98 % of control and the T/C [14] is reported as 98 % of control.
